Key:
BbhV = target: T1, BbhV (Bifidobacterium bifidum, UniProt A0ABN5UYD8); assay: initial velocities, p-nitrophenolate release ([…] nm), Michaelis-Menten fit; type: biochemical; details: 0.1-5.0 mM substrate; McIlvaine buffer, pH optimum 5.5 (pH and temperature of the kinetics not stated)
T1 construct: gene BBBF_1623; residues 35-1111 of 1139 aa, signal peptide and C-terminal TM region removed, C-terminal His6 tag kept; E. coli; 171 kDa by SEC, dimer

[1] = target: BbhV (GH84 β-N-acetylglucosaminidase of Bifidobacterium bifidum JCM 1254), residues 35-1111, C-terminal His6 (Bifidobacterium bifidum JCM 1254); assay: SEC; Superdex 200 Increase 10/300 GL; 10 mM Tris-HCl pH 8.0, 150 mM NaCl; native mass estimated against thyroglobulin, ferritin, aldolase and conalbumin standards

T1 sequence (A0ABN5UYD8 entry or part of it): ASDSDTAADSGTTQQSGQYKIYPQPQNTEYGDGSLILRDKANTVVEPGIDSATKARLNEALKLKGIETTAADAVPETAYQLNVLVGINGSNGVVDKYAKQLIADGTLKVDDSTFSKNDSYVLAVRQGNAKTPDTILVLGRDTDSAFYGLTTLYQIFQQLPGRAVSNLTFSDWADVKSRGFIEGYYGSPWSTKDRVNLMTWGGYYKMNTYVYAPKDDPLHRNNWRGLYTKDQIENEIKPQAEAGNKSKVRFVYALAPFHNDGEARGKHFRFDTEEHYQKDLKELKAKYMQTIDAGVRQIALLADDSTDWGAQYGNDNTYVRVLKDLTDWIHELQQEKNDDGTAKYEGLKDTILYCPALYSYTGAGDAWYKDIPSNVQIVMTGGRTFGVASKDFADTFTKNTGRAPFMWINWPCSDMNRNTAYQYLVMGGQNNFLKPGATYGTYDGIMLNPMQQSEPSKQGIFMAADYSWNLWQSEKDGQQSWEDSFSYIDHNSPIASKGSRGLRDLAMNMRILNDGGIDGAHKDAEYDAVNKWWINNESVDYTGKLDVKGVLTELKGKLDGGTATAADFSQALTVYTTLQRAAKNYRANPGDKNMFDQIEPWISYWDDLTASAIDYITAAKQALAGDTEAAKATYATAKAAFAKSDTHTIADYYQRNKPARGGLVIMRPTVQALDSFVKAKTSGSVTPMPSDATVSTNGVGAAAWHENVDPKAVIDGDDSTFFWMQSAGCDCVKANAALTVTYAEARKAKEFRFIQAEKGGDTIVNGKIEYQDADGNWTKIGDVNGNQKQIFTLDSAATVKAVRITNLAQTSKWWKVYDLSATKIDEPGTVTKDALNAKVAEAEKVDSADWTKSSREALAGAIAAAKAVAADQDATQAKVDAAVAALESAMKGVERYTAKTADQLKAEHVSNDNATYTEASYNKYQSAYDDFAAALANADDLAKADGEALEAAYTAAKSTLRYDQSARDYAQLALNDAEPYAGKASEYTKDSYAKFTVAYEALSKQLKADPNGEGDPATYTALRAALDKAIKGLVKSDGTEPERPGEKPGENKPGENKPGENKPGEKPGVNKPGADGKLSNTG

## CC(=O)N[C@H]1[C@H](Oc2ccc([N+](=O)[O-])cc2)O[C@H](CO)[C@@H](O)[C@@H]1O [GlcNAcβ-pNP]
BbhV
  Km: 1000 µM

## BbhV (GH84 β-N-acetylglucosaminidase of Bifidobacterium bifidum JCM 1254), residues 35-1111, C-terminal His6 (enzyme)
[1]
  stoichiometry N: 2

Source: publication PMC10245121, “GH20 and GH84 β-N-acetylglucosaminidases with different linkage specificities underpin mucin O-glycan breakdown capability of Bifidobacterium bifidum” (The Journal of Biological Chemistry, 2023)
